Results from paper PMC8387526, “Small peptide-based GLP-1R ligands: an approach to reduce the kidney uptake of radiolabeled GLP-1R-targeting agents?” (EJNMMI Radiopharmacy and Chemistry, 2021).
“Also recorded” adds a separate entry of the source. Square brackets hold non-standard residues; d marks the D form. Peptide text beside a SMILES is read from it. * marks the point of attachment. Benzoyl(4-SiFtBu2) = CC(C)(C)[Si](F)(c1ccc(C(=O)*)cc1)C(C)(C)C; αMePhe(2-F) = C[C@](N)(Cc1ccccc1F)C(=O)O; hPhe = N[C@@H](CCc1ccccc1)C(=O)O; Dap = NC[C@H](N)C(=O)O; Aib = CC(C)(N)C(=O)O

Molecular target: human GLP-1 receptor (Homo sapiens, UniProt P43220)
Sequence (P43220 24-463): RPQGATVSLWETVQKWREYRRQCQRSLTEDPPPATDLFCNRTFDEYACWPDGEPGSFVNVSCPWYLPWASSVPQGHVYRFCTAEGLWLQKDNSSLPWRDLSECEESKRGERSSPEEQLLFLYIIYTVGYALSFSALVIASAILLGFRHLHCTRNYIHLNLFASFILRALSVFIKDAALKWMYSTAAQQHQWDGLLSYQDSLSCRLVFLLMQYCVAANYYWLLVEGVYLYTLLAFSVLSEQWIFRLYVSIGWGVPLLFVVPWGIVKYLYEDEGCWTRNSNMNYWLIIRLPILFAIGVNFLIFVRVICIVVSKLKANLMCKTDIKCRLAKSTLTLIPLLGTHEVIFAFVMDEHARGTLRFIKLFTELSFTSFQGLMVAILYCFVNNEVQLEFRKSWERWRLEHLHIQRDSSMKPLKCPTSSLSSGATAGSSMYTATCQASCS
Assay: Competitive binding (IC50) on HEK293-hGLP-1R cells with radioligand [Nle^14, [^125I]Tyr(3-I)^40]exendin-4
Parameters: Dr. Timothy Kieffer (University of British Columbia); host or cells: HEK293
Conditions: for IC50 ± SD (result in words): ligand range 10^-11 to 10^-5 M
Experimental: Dr. Timothy Kieffer (University of British Columbia, Vancouver, Canada). Cells were cultivated in high glucose DMEM (25.0 mM D-glucose, 3.97 mM GlutaMAX; REF-number: 61965–026; Fisher Scientific GmbH, Schwerte, Germany) supplemented with 10% fetal bovine serum and 1 mM sodium pyruvate. Medium for stably transfected HEK293-hGLP-1R cells was constantly supplemented with 1 mg/mL Geneticin (G-418 Biochrom, Merck KgaA, Darmstadt, Germany) as selection antibiotic. The cell line was kept at 37 °C in a humidified 5% CO2 atmosphere. One day (24 ± 2 h) prior to all in vitro experiments, the cultivated HEK293-h-GLP-1R cells were harvested using a mixture of trypsin/ethylenediaminetetraacetic acid (0.05%/0.02%) in phosphate-buffered saline (PBS) (Gibco, Germany) and centrifuged at 1300 rpm (ca. 190×g) for 3 min at room temperature (Heraeus Megafuge 16, Thermo Fisher, Germany). After centrifugation, the supernatant was disposed and the cell pellet was resuspended in culture medium. Cells were counted with a Neubauer hemocytometer (Paul Marienfeld GmbH & Co. KG, Lauda-Königshofen, Germany) and seeded in 24-well plates. IC50 values were determined by transferring 1.50 × 10^5 cells/mL per well into 24-well plates.
Detailed information on affinity experiments is provided in the SI. In brief, competitive binding studies were determined on HEK293-hGLP-1R cells (1.50 × 10^5 cells in 1 mL/well) after incubation at 4 °C for 2 hours, using [^125I]Tyr(3-I)^40–3 (0.41 nM/well) as reference radioligand (n = 3).
Dr. Timothy J. Kieffer (University of British Columbia, Vancouver, Canada). Cells were cultivated in high glucose DMEM (25.0 mM D-glucose, 3.97 mM GlutaMAX; REF-number: 61965-026; Fisher Scientific GmbH, Schwerte, Germany) supplemented with 10% fetal bovine serum and 1 mM sodium pyruvate. Medium for stably transfected HEK293-hGLP-1R cells was constantly supplemented with 1 mg/mL Geneticin (G-418 Biochrom, Merck KgaA, Darmstadt, Germany) as selection antibiotic. The cell line was kept at 37 °C in a humidified 5% CO2 atmosphere. One day (24 ± 2 h) prior to all in vitro experiments, the cultivated cells were harvested using a mixture of trypsin/ethylenediaminetetraacetic acid (0.05%/0.02%) in phosphate-buffered saline (PBS) (Merck KgaA, Darmstadt, Germany) and centrifuged at 1300 rpm (ca. 190 × g) for 3 min at room temperature (Heraeus Megafuge 16, Thermo Fisher Scientific, Darmstadt, Germany). After centrifugation, the supernatant was disposed and the cell pellet was resuspended in culture medium. Cells were counted with a Neubauer hemocytometer (Paul Marienfeld GmbH & Co. KG, Lauda-Königshofen, Germany) and seeded in 24-well plates (Greiner Bio-One, Kremsmünster, Austria). IC50 values were determined by transferring 1.50 × 10^5 cells/mL per well into 24-well plates (Greiner Bio-One, Kremsmünster, Austria).
The culture medium was removed and the cells were washed with 500 µL of Hank’s balanced salt solution (HBSS) (Merck KGaA, Darmstadt, Germany), containing 1% bovine serum albumin (BSA) (Merck KGaA, Darmstadt, Germany). Afterwards, 200 µL of HBSS (1% BSA) were added to each well and equilibrated on ice (4 °C) for 15 min. 25 µL/well of either HBSS (1% BSA) (= control) or of solutions, containing the respective unlabeled ligand in increasing concentrations (10^-10 - 10^-4 M in HBSS) were added, followed by the addition of 25 µL of [Nle^14, [^125I]Tyr(3-I)^40]exendin-4 in HBSS (1% BSA) to each well. Experiments were carried out in triplicates for each concentration. The final concentrations of unlabeled ligand ranged from 10^-11 - 10^-5 M and the final radioligand concentration was 0.41 nM in all binding assays. The cells were incubated for two hours at 4 °C. Incubation was terminated by removal of the incubation medium. The cells were washed with 250 µL of HBSS (1% BSA) and the wash medium was combined with the respective supernatant. This fraction represents the amount of free radioligand. The cells were lysed by addition of 250 µL of 1 M aqueous NaOH. […]

Row | Compound | IC50 ± SD (result in words) (w/ and w/o BSA) | other results
1 | CC(C)C[C@H](NC(=O)[C@H](CNC(=O)c1ccc([Si](F)(C(C)(C)C)C(C)(C)C)cc1)NC(=O)[C@H](CO)NC(=O)[C@H](CO)NC(=O)[C@@H](NC(=O)[C@H](CC(=O)O)NC(=O)[C@H](CO)NC(=O)[C@@H](NC(=O)[C@](C)(Cc1ccccc1F)NC(=O)[C@@H](NC(=O)CNC(=O)[C@H](CCC(=O)O)NC(=O)C(C)(C)NC(=O)[C@@H](N)Cc1c[nH]cn1)[C@@H](C)O)[C@@H](C)O)C(C)C)C(=O)N[C@@H](CCC(=O)O)C(N)=O [Peptide 10, H-L-His-Aib-L-Glu-Gly-L-Thr-L-(α-Me)Phe(2-F)-L-Thr-L-Ser-L-Asp-L-Val-L-Ser-L-Ser-L-Dap(SiFA)- L-Leu-L-Glu-NH2] (H-H[Aib]EGT[αMePhe(2-F)]TSDVSS[Dap](Benzoyl(4-SiFtBu2))LE-NH2) | – | IC50: 2.95 ± 0.31 µM
2 | CC(C)C[C@H](NC(=O)[C@H](CNC(=O)c1ccc([Si](F)(C(C)(C)C)C(C)(C)C)cc1)NC(=O)[C@H](CO)NC(=O)[C@H](CCc1ccccc1)NC(=O)[C@@H](NC(=O)[C@H](CC(=O)O)NC(=O)[C@H](CO)NC(=O)[C@@H](NC(=O)[C@](C)(Cc1ccccc1F)NC(=O)[C@@H](NC(=O)CNC(=O)[C@H](CCC(=O)O)NC(=O)C(C)(C)NC(=O)[C@@H](N)Cc1c[nH]cn1)[C@@H](C)O)[C@@H](C)O)C(C)C)C(=O)N[C@@H](CCC(=O)O)C(N)=O [Peptide 11, H-L-His-Aib-L-Glu-Gly-L-Thr-L-(α-Me)Phe(2-F)-L-Thr-L-Ser-L-Asp-L-Val-L-homoPhe-L-Ser-L-Dap(SiFA)-L-Leu-L-Glu-NH2] (H-H[Aib]EGT[αMePhe(2-F)]TSDV[hPhe]S[Dap](Benzoyl(4-SiFtBu2))LE-NH2) | – | IC50: 7.12 ± 2.47 µM
3 | H-L-His-Aib-L-Glu-Gly-L-Thr-L-(α-Me)Phe(2-F)-L-Thr-L-Ser-L-Asp-L-Val-L-Dap(SiFA)-NH2 [Peptide 9] | no affinity was detected; also recorded: no detectable affinity n = 2 (w/ and w/o BSA) | –
4 | H-L-His-Aib-L-Glu-Gly-L-Thr-L-(α-Me)Phe(2-F)-L-Thr-L-Ser-L-Asp-NH2 [Peptide 7] | no detectable affinity n = 2 (w/ and w/o BSA) | –
5 | H-L-His-Aib-L-Glu-Gly-L-Thr-L-(α-Me)Phe(2-F)-L-Thr-L-Ser-L-Asp-O2Oc-L/D-Dap(SiFA)-L-Leu-L-Glu-NH2 [Peptide 13] | no radioligand displacement was observed; also recorded: no detectable affinity n = 2 (w/ and w/o BSA) | –
6 | H-L-His-Aib-L-Glu-Gly-L-Thr-L-(α-Me)Phe-L-Thr-L-Ser-L-Asp-L-Phe(4-I)-L-homoPhe-NH2 [Peptide 8] | eliminated any detectable affinity; also recorded: no detectable affinity n = 2 (w/ and w/o BSA) | –
7 | H-L-His-Aib-L-Glu-Gly-L-Thr-L-(α-Me)Phe-L-Thr-L-Ser-L-Asp-OH [Peptide 6] | – | IC50 ± SD (result in words) (w/ BSA (1% BSA)): no detectable affinity n = 1 (w/ BSA)
